The numbers were not newly measured in EP4092126A1, “A METHOD OF ENZYMATIC REDUCTION OF THE OXIDIZED NICOTINAMIDE ADENINE DINUCLEOTIDE AND CARBOXYLIC ACIDS” (priority 2021, dated 2022), which cites them from elsewhere.

Data set [1] relates to tungsten aldehyde oxidoreductase (AOR) from A. aromaticum. Particulars: 1 mM benzaldehyde, re-oxidized with NAD+, pH 8.0, 28°C, anaerobic conditions.
Another data set addresses T1, AOR (Aromatoleum aromaticum, UniProt Q5P142+Q5P143).
T1 sequence (Q5P143 1-616): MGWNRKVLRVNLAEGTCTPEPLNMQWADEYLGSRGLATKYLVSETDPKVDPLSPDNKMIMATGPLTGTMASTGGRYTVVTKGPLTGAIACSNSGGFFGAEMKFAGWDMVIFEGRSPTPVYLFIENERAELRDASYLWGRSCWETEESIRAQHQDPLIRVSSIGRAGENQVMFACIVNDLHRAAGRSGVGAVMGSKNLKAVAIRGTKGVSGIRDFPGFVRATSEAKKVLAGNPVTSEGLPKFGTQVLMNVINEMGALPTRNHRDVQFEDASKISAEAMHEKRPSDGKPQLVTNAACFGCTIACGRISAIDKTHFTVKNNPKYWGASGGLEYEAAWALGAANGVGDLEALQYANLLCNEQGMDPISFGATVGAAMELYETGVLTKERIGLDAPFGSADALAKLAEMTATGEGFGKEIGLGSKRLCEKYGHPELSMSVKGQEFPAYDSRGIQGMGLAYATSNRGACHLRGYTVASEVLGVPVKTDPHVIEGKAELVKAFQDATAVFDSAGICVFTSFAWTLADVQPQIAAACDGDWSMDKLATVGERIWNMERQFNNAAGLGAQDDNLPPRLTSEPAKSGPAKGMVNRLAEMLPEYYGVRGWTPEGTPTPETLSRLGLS
T1 sequence (Q5P142 1-424): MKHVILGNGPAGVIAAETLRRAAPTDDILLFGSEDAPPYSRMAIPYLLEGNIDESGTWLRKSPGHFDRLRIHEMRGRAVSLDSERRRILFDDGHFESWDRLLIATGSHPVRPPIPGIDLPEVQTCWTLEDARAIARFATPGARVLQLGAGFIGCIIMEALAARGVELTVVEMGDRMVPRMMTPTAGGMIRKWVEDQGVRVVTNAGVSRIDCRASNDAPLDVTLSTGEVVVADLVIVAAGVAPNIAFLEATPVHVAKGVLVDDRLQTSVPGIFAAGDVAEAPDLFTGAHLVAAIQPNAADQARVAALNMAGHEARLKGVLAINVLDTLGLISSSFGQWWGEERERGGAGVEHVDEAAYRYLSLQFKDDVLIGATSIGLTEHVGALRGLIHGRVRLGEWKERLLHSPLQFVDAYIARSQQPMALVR
T1 sequence (Q5P144 1-158 partner): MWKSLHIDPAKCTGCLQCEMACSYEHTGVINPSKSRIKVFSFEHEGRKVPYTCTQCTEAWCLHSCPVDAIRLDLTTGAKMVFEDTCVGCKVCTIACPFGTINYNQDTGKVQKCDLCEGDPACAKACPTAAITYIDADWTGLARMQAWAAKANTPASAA
Particulars: 1 mM benzaldehyde, pH 8.0, 28°C, anaerobic; read-out: Km versus NAD^+.

For data set [2], the target named is T2, phosphine dehydrogenase (PTDH) (Stutzerimonas stutzeri, UniProt O69054).
T2 sequence (O69054 1-336): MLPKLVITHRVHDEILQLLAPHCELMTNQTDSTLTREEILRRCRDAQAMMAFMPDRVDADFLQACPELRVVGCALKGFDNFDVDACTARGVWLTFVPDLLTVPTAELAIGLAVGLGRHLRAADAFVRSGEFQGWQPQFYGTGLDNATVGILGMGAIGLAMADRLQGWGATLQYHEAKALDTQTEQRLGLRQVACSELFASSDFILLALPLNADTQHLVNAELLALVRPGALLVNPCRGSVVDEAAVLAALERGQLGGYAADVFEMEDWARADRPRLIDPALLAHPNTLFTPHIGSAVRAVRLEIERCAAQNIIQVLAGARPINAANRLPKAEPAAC
Particulars: read-out: Km (NAD^+).

Data set [3] has as its target [NiFe] dehydrogenase from Ralstonia eutropha (Cupriavidus necator, UniProt P22317+P22320).
Data set [4] concerns the target AOR enzyme from Thermococcus strain ES-1. Particulars: reducing acetic acid to acetaldehyde with reduced methyl viologen.
The subject of data set [5] is [NiFe] dehydrogenase from Ralstonia eutropha. The conditions noted are these: same Km expressed as per cent H2.

Read-outs that look alike come from different tables or passages of the source.

[NiFe] dehydrogenase from Ralstonia eutropha (Cupriavidus necator, UniProt P22317+P22320), sequence (P22318 whole entry): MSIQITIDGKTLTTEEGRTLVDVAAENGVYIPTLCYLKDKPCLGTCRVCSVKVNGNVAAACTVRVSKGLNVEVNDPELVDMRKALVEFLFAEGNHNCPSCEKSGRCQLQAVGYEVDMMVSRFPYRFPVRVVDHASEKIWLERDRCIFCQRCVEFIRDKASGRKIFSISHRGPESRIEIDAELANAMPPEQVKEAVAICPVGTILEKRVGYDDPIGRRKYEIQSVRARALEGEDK
[NiFe] dehydrogenase from Ralstonia eutropha (Cupriavidus necator, UniProt P22317+P22320), sequence (P22320 1-464): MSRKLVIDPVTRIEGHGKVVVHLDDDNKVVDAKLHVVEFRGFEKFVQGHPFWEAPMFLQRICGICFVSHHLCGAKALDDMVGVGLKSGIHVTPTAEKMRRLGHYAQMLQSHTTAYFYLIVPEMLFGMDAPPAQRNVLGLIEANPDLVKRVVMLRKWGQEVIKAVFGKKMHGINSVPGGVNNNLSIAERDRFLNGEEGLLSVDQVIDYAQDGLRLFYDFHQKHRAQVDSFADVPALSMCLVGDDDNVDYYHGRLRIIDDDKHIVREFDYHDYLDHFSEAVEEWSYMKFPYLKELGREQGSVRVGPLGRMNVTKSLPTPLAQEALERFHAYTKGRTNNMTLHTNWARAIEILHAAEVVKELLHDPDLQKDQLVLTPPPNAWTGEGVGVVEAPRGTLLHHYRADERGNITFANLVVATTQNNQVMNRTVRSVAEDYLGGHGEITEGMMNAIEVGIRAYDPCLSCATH
[NiFe] dehydrogenase from Ralstonia eutropha (Cupriavidus necator, UniProt P22317+P22320), sequence (P22319 whole entry, further chain): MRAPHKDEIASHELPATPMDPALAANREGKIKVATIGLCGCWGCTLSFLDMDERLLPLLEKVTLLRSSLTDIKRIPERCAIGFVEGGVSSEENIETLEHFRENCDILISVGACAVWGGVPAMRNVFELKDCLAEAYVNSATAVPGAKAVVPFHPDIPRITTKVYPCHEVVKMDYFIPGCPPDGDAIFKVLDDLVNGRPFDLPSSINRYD
[NiFe] dehydrogenase from Ralstonia eutropha (Cupriavidus necator, UniProt P22317+P22320), sequence (P22317 whole entry): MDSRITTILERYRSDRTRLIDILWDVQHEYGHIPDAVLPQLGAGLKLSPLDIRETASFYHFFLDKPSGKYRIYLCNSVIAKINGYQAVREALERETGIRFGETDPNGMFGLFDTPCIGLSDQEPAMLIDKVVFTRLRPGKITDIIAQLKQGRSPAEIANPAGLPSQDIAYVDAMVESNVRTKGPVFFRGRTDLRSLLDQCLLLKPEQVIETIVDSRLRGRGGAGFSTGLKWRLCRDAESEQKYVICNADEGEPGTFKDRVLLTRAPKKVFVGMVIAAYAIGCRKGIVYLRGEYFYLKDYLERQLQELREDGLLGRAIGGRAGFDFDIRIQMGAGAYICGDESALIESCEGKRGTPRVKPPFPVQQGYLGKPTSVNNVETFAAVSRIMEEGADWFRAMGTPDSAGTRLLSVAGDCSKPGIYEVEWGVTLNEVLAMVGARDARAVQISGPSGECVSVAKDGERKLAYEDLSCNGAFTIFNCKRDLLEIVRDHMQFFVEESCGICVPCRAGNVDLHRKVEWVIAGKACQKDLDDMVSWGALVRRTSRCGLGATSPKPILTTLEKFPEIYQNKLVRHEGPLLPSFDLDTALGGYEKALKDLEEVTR

For the compound `NC(=O)c1ccc[n+]([C@@H]2O[C@H](COP(=O)([O-])OP(=O)(O)OC[C@H]3O[C@@H](n4cnc5c(N)ncnc54)[C@H](O)[C@@H]3O)[C@@H](O)[C@H]2O)c1` [NAD+, nicotinamide adenine dinucleotide], the “maximum observed reaction rate, Vmax” value in data set [1] is 12.5 mM/min/mg.

As a reminder, the Km is the substrate concentration at which the rate is half of its maximum. In the case of `NC(=O)c1ccc[n+]([C@@H]2O[C@H](COP(=O)([O-])OP(=O)(O)OC[C@H]3O[C@@H](n4cnc5c(N)ncnc54)[C@H](O)[C@@H]3O)[C@@H](O)[C@H]2O)c1` [NAD^+, nicotinamide adenine dinucleotide], the Michaelis constant (Km) was 63 µM at AOR, 53 µM in data set [2] and 560 µM in data set [3] (read-out: Km (NAD^+)).

As for `CC(=O)O` [acetic acid], the “kinetic rate constant (kcat)” value in data set [4] is on record as 1.6 turnovers of the catalyzed reaction per second.

Broadly, the Ki is the equilibrium dissociation constant of an inhibitor or competing ligand from its target. With `[HH]` [hydrogen], in data set [3] (1.4-5% H2, read-out: Km (hydrogen)), the Km is 11 to 37 µM. Also, in data set [3] (hyperbaric conditions, read-out: Ki (inhibition by H2)), the Ki was 1.46 mM.

hydrogen [H2]: the “Km (hydrogen), as H2 content” value in data set [5] is recorded as 1.4-5 % H2.
